From patent US20260001849A1, “NOVEL B0AT1 INHIBITOR” (MITSUBISHI TANABE PHARMA CORPORATION, priority 2023, published 2026)
Read-outs that look alike come from different tables or passages of the source.

Legend:
Human BOAT1 = molecular target: T1, Human BOAT1 (Homo sapiens, UniProt Q695T7); assay: hBOAT1 inhibitory test (phenylalanine uptake); format: cell-based; details: Human BOAT1 stable expression CHO cells, phenylalanine 0.25 mM, read-out: hB0AT1 IC50
T1 construct: expressed in transfected cells
T1 sequence (Q695T7 1-634): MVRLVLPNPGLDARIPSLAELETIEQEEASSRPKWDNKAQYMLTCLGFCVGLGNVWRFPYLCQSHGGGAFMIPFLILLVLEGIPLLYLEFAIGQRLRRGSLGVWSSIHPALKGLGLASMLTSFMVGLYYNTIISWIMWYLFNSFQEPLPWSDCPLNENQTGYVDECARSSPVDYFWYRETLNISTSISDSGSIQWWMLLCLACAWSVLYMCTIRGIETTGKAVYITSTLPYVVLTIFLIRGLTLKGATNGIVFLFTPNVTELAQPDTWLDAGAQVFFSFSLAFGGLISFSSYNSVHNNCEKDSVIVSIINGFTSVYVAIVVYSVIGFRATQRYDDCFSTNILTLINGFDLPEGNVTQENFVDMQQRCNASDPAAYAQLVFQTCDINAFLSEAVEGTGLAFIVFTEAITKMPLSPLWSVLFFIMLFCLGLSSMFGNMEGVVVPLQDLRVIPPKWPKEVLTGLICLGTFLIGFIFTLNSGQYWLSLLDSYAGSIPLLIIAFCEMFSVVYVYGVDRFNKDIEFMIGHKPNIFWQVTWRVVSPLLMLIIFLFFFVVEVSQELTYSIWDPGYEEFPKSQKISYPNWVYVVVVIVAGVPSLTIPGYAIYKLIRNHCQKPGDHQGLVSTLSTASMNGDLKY
Procedure, shortened: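 Human BOAT1 stably expressed in CHO cells (75000 cells/well) in HEPES-buffered NaCl/KCl/CaCl2/MgCl2 buffer with 0.01% BSA, compound at 0.5% DMSO, preincubated ≥30 min at ordinary temperature. Uptake of L-phenylalanine plus [3H]-L-phenylalanine (0.25 mM final) read by scintillation proximity; 100–200 min values analysed, non-specific uptake defined with […] reference inhibitor.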

hERG channel = molecular target: T2, hERG channel (Homo sapiens, UniProt Q12809); assay: hERG channel inhibitory activity, whole-cell patch clamp (auto-patch clamp system); format: cell-based; details: read-out: hERG IC50
T2 construct: host or cells: CHO cells

[1] = [3H]-L-phenylalanine uptake, radioactivity after 100 to 200 min

T2 sequence (Q12809 whole entry): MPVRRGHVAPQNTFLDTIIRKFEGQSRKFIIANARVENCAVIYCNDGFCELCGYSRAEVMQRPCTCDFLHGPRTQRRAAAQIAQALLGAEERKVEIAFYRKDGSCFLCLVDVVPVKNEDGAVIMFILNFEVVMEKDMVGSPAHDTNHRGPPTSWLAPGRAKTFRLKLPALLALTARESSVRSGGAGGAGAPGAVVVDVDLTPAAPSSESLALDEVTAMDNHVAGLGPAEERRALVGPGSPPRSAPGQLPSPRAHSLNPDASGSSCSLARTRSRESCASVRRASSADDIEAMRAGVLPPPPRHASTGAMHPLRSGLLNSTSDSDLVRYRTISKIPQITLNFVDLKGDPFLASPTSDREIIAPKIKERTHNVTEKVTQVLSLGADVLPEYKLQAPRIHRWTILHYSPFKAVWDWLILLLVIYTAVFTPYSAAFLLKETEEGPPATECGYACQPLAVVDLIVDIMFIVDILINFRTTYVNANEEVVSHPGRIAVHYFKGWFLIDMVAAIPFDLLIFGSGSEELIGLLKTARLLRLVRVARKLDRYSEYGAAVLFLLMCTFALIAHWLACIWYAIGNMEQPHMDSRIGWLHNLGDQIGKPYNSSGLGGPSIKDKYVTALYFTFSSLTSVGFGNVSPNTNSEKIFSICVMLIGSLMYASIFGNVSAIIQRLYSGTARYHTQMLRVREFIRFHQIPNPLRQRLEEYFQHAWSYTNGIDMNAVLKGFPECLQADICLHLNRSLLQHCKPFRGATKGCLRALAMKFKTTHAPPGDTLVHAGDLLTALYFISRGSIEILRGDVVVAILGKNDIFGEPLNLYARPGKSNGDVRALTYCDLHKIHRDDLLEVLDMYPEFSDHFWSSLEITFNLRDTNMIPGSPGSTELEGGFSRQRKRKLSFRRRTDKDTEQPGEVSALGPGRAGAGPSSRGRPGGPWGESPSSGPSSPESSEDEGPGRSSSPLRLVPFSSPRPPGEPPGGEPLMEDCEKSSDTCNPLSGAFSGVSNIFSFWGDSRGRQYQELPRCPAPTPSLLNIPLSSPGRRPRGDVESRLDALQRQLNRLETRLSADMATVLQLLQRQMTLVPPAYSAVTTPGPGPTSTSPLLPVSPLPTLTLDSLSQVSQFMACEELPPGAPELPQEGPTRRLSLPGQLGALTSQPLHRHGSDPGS

Row | Compound | IC50 (Human BOAT1; [1]) [µM] | IC50 (Human BOAT1; phenylalanine uptake) [µM] | IC50 (hERG channel) [µM]
1 | C[C@@H]1CN(C(=O)CNC(=O)/C=C/c2ccc(C(F)(F)F)cc2F)[C@@H](c2cccc(C3CC3)c2)CN1CCC(=O)O [I-384] | 0.031 | – | 15.8
2 | Cc1cccc([C@H]2CN(CCCC(=O)O)[C@H](C)CN2C(=O)CNC(=O)/C=C/c2ccc(C(F)(F)F)cc2F)c1 [I-385] | 0.07 | – | 21
3 | C[C@@H]1CN(C(=O)CNC(=O)/C=C/c2ccc(C(F)(F)F)cc2F)[C@@H](c2cccnc2)CN1CCCC(=O)O [I-395] | – | 0.636 | > 30
4 | C[C@@H]1CN(C(=O)CNC(=O)/C=C/c2ccc(C(F)(F)F)cc2F)[C@@H](c2ccc3ccccc3c2)CN1CCCC(=O)O [I-398] | – | 0.042 | 25.6

Further lines, with some results ahead:

Row | IC50 (Human BOAT1; [1]) [µM] | IC50 (Human BOAT1; phenylalanine uptake) [µM] | Compound | IC50 (hERG channel) [µM]
5 | – | 0.071 | C[C@@H]1CN(C(=O)CNC(=O)/C=C/c2ccc(C(F)(F)F)cc2F)[C@@H](c2ccc(Cl)s2)CN1CCC(=O)O [I-396] | > 30
6 | – | 0.075 | [2H]C([2H])([2H])[C@@H]1CN(C(=O)CNC(=O)/C=C/c2ccc(C(F)(F)F)cc2F)[C@@H](c2ccccc2)CN1CCCC(=O)O [I-397] | > 30
7 | – | 2.9 | Cc1noc([C@H]2CN(CCCC(=O)O)CCN2C(=O)CNC(=O)/C=C/c2ccc(C(F)(F)F)cc2F)n1 [I-401] | > 30
